Key:
[1] = test system: multiple strains of MRSA; experiment: MICs (minimal inhibitory concentrations) vs multiple strains of MRSA; format: cell-based, Staphylococcus aureus; settings: compound at 2 mg/L
[2] = test system: vraSR promoter (Pvra-lux reporter in strain 923); experiment: Primary screen, relative luminescence (vraSR expression); settings: primary screen, compound 10 μM with oxacillin 2 μg/mL; <0.50 = vraSR repressed = hit
[3] = test system: test strain (923 pPvra-lux); experiment: Growth inhibition by compound alone (maximum non-growth-inhibitory concentration); format: cell-based, Staphylococcus aureus; settings: for maximum non-GI conc: compound alone, maximum concentration where it did NOT inhibit growth
[4] = test system: vraSR promoter (Pvra-lux reporter in strain 923); format: cell-based, Staphylococcus aureus; settings: for RL Ox avg: Top 40 library, with oxacillin, compound at maximum non-GI conc; for vraSR repressing synergist: overall class from syn and rep
Experimental: In the secondary screen each microtiter plate contained either cells in TSB alone (16 replicates), cells with oxacillin (2 μg/mL, 31 replicates), or cells with test compound and oxacillin (2 μg/mL, 49 wells). Each compound was assayed in four separate biological replicates. […]

[5] = test system: test strain 923 pPvra-lux (USA300 MRSA); experiment: Primary screen, relative growth in presence of oxacillin; settings: compound 10 μM with oxacillin 2 μg/mL, absorbance 24 h, <0.50 = dead cells = hit
[6] = test system: test strain 923 pPvra-lux; experiment: Secondary screen / synergy confirmation of Top 40, relative growth with oxacillin; format: cell-based, Staphylococcus aureus; settings: Top 40 library, compound at maximum non-GI conc
Experimental: In the secondary screen each microtiter plate contained either cells in TSB alone (16 replicates), cells with oxacillin (2 μg/mL, 31 replicates), or cells with test compound and oxacillin (2 μg/mL, 49 wells). Each compound was assayed in four separate biological replicates.
Synergy Confirmation of “Top 40”. […]

| SMILES | Ox MIC in presence of compound ([1]; isolate 923, SCCmec IV, ST 8) | Ox MIC in presence of compound ([1]; isolate 1176, SCCmec II, ST 231) | Ox MIC in presence of compound ([1]; isolate 2169, SCCmec IV, ST 72) | Ox MIC in presence of compound ([1]; isolate 8004-01, SCCmec III, ST 239) | Ox MIC in presence of compound ([1]; isolate 8010-01, SCCmec IV, ST 8) | Ox MIC in presence of compound ([1]; isolate 8227-01, SCCmec IV, ST 87) | Ox MIC in presence of compound ([1]; isolate 11095, SCCmec II, ST 105) | Ox MIC in presence of compound ([1]; isolate 13113, SCCmec II, ST 5) | Ox MIC in presence of compound ([1]; isolate 13354, SCCmec IV, ST 5) | Ox MIC in presence of compound ([1]; isolate 14315, SCCmec IV, ST 1) | Ox MIC in presence of compound ([1]; isolate Q2461, SCCmec VT, ST 59) | RL avg (relative luminescence) [2] | maximum non-GI conc [3] | RL Ox avg [4] | vraSR repressing synergist [4] | RG avg (relative growth) [5] | RG Ox avg [6] | concentration ([3]; compound tested alone, concentration where it did NOT inhibit growth (subinhibitory), Top 40 leads after secondary screen) |
| --- | --- | --- | --- | --- | --- | --- | --- | --- | --- | --- | --- | --- | --- | --- | --- | --- | --- | --- |
| O=C(Nc1ccc(Cl)c(Cl)c1)Nc1ccc2cn[nH]c2c1 [F5882-3050] | <0.25 mg/L | <0.5 mg/L | <0.25 mg/L | 32 mg/L | <0.25 mg/L | <0.06 mg/L | <2 mg/L | <0.13 mg/L | <0.13 mg/L | <0.5 mg/L | 0.5 mg/L | 0.25 | 400 µg/mL | 0.07 | 1. confirmed | 0.39 | 0.02 |  |
| O=S(=O)(Nc1cccc(-c2nc3ccccc3s2)c1)c1ccc(Cl)s1 [F2399-0063] |  |  |  |  |  |  |  |  |  |  |  | 0.12 | 400 µg/mL | 0.04 | 1. confirmed | 0.28 | −0.01 |  |
| Cc1ccc(C)c2sc(NC(=O)c3cccs3)nc12 [F0600-1305] |  |  |  |  |  |  |  |  |  |  |  | 0.22 | 400 µg/mL | 0.15 | 3. no effect | 0.36 | 0.94 |  |
| CN(C)CCCNc1cc(C(C)(C)C)nc2c(-c3ccc(Cl)cc3)cnn12 [F3348-0373] |  |  |  |  |  |  |  |  |  |  |  | 0.41 | 40 µg/mL | 0.80 | 3. no effect | 0.05 | 0.99 |  |
| COc1ccc(Cl)c2sc(NC(=O)c3ccccc3NS(=O)(=O)c3ccc(F)cc3)nc12 [F2708-0138] |  |  |  |  |  |  |  |  |  |  |  | −0.07 | 40 µg/mL | 0.69 | 3. no effect | 0.02 | 1.04 | 4 µg/mL |
| Cn1cccc1C(CNC(=O)Nc1ccc(Cl)c(Cl)c1)N1CCOCC1 (stereo not drawn) [F5833-1551] |  |  |  |  |  |  |  |  |  |  |  | −0.03 | 40 µg/mL | 0.56 | 3. no effect | 0.01 | 0.99 |  |
| Cc1ccc(-c2nnc(NC(=O)c3ccc(S(=O)(=O)N4CCc5ccccc5C4)cc3)o2)c(C)c1 [F2518-0213] |  |  |  |  |  |  |  |  |  |  |  | −0.01 | 4 µg/mL | 0.33 | 3. no effect | 0.01 | 1.14 |  |
| O=C(Nc1nnc(C2=COCCO2)o1)c1cccc(Br)c1 [F0608-0146] |  |  |  |  |  |  |  |  |  |  |  | −0.12 | 40 µg/mL | 1.11 | 3. no effect | −0.05 | 0.96 |  |
| Clc1ccc(-c2csc3ncnc(Sc4nnnn4-c4ccccc4)c23)cc1 [F1142-4597] |  |  |  |  |  |  |  |  |  |  |  | 0.37 | 40 µg/mL | −0.01 | 1. confirmed | 0.03 | 0.08 |  |
| Cc1cc(SCC(=O)Nc2cccc(C(F)(F)F)c2)n2ncc(-c3ccccc3)c2n1 [F3305-0354] |  |  |  |  |  |  |  |  |  |  |  | 0.03 | 40 µg/mL | 0.61 | 3. no effect | 0.00 | 1.01 |  |
| CC(=O)Nc1ccc(Nc2cc(C(C)C)nc3c(-c4ccccc4)cnn23)cc1 [F3348-0533] |  |  |  |  |  |  |  |  |  |  |  | 0.01 | 400 µg/mL | 0.10 | 1. confirmed | 0.02 | 0.02 |  |
| O=C(Nc1nnc(-c2ccccc2Cl)o1)c1ccc2ccccc2c1 [F1374-0082] |  |  |  |  |  |  |  |  |  |  |  | 0.35 | 40 µg/mL | 0.08 | 2. possible | 0.08 | 0.67 |  |
| O=C(Nc1ccc(Cl)c(Cl)c1)N(Cc1ccsc1)Cc1ccco1 [F5854-2599] |  |  |  |  |  |  |  |  |  |  |  | −0.06 | 40 µg/mL | 0.54 | 3. no effect | 0.01 | 1.01 |  |
| O=C(Nc1ccccc1-c1nc2ccccc2[nH]1)c1ccccc1Br [F0015-0758] |  |  |  |  |  |  |  |  |  |  |  | 0.33 | 400 µg/mL | 0.25 | 3. no effect | −0.06 | 0.92 |  |
| CC1CCN(C(C)CNC(=O)Nc2ccc(C(F)(F)F)cc2)CC1 (stereo not drawn) [F2438-0002] |  |  |  |  |  |  |  |  |  |  |  | −0.18 | 40 µg/mL | 0.62 | 3. no effect | −0.02 | 0.95 |  |
| O=C(Nc1cccc(C(F)(F)F)c1)N1CCN(c2ccc(Nc3cccnc3)nn2)CC1 [F5237-0056] |  |  |  |  |  |  |  |  |  |  |  | −0.05 | 40 µg/mL | 0.72 | 3. no effect | 0.02 | 1.10 |  |
| Fc1ccc(-c2csc3ncnc(Sc4nnnn4-c4ccccc4)c23)cc1 [F1142-4245] |  |  |  |  |  |  |  |  |  |  |  | 0.36 | 400 µg/mL | 0.04 | 1. confirmed | 0.03 | 0.25 |  |
| CSc1cccc2sc(NC(=O)c3ccccc3NS(=O)(=O)c3ccc(C)cc3)nc12 [F2730-0247] |  |  |  |  |  |  |  |  |  |  |  | 0.16 | 400 µg/mL | 0.15 | 1. confirmed | 0.31 | 0.23 |  |
| Cc1nnsc1C(=O)Nc1nc(-c2cc3ccccc3o2)cs1 [F2962-0176] |  |  |  |  |  |  |  |  |  |  |  | −0.08 | 400 µg/mL | 0.01 | 1. confirmed | 0.06 | 0.04 |  |
| O=S(=O)(Nc1cccc(-c2nc3ccccc3s2)c1)c1ccc(F)c(Cl)c1 [F3394-0078] |  |  |  |  |  |  |  |  |  |  |  | 0.26 | 40 µg/mL | 0.41 | 3. no effect | 0.26 | 1.24 |  |
| O=C(Nc1nnc(-c2ccc(OC(F)(F)F)cc2)o1)C1(c2cccs2)CCCC1 [F2517-0863] |  |  |  |  |  |  |  |  |  |  |  | −0.06 | 4 µg/mL | 1.18 | 3. no effect | 0.02 | 0.92 |  |
| Cc1ccc(S(=O)(=O)Nc2ccccc2C(=O)Nc2nc3c(Cl)ccc(Cl)c3s2)cc1 [F1813-0710] |  |  |  |  |  |  |  |  |  |  |  | 0.01 | 400 µg/mL | 0.20 | 2. possible | −0.03 | 0.69 |  |
| CC(=O)Nc1ccc(Nc2cc(C(C)(C)C)nc3c(-c4ccccc4)c(C)nn23)cc1 [F3348-0030] |  |  |  |  |  |  |  |  |  |  |  | 0.12 | 400 µg/mL | 0.05 | 1. confirmed | 0.05 | 0.01 |  |
| O=C(Nc1ccc(Cl)c(C(F)(F)F)c1)N1CCN(c2cc(-n3cccn3)ncn2)CC1 [F5562-0130] |  |  |  |  |  |  |  |  |  |  |  | −0.08 | 40 µg/mL | 0.57 | 3. no effect | 0.02 | 1.03 |  |
| O=C(Nc1nc(-c2ccccn2)cs1)c1ccc(Br)s1 [F0447-0273] |  |  |  |  |  |  |  |  |  |  |  | −0.09 | 40 µg/mL | 0.08 | 1. confirmed | −0.08 | 0.39 |  |

— patent US9675592B2, “Methods and compositions for bacteria infections” (priority 2013, dated 2017)
